Test results: ChEMBL document CHEMBL1909046, “DrugMatrix in vitro pharmacology data”

What was measured:
[1] = DRUGMATRIX: ATPase, Na+/K+ enzyme inhibition (substrate: ATP); type: tissue-based, Sus scrofa, Heart; details: Not Active = under 50% inhibition at 10 µM
[2] = biological target: T1, Nitric oxide synthase, inducible (Mus musculus, UniProt P29477); parameters: species or system Escherichia coli;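 note: inhibition of iNOS enzyme activity measured with L-arginine as substrate; in other assays of this panel Not Active means under 50% inhibition at 10 µM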
T1 sequence (P29477 whole entry): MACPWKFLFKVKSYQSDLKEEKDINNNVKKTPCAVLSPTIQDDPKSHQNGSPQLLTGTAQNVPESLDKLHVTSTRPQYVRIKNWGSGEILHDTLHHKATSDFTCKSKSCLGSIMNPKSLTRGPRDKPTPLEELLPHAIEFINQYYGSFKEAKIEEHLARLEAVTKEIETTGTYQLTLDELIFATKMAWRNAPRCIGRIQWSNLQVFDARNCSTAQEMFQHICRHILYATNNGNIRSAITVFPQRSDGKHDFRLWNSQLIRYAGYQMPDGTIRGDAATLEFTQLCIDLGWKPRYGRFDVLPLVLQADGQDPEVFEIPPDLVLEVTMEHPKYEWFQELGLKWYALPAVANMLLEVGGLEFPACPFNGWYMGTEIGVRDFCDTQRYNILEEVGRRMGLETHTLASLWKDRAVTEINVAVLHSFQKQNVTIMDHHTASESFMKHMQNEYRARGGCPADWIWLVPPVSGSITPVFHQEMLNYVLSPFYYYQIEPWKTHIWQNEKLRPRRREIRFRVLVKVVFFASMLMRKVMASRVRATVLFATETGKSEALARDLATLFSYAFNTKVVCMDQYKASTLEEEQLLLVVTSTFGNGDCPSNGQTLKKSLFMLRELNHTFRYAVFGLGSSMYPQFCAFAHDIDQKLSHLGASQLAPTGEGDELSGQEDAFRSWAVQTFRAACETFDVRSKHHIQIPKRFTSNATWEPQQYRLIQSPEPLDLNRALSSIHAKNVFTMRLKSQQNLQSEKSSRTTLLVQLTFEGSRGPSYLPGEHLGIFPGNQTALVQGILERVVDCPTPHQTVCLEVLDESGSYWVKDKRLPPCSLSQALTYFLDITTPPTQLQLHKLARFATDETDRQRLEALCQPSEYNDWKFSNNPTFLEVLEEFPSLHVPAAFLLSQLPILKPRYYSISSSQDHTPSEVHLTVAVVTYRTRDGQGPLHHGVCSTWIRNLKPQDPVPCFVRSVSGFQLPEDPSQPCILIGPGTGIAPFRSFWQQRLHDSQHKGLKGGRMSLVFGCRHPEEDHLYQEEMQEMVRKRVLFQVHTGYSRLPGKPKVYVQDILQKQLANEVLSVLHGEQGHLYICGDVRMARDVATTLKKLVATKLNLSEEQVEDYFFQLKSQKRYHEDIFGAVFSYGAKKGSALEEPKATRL

[3] = DRUGMATRIX: Tumor Necrosis Factor (TNF), Non-Selective radioligand binding (ligand: [125I] TNF-alpha); type: cell membranes, Membrane; details: u-937; Not Active = under 50% inhibition at 10 µM
[4] = DRUGMATRIX: Nicotinic Acetylcholine radioligand binding (ligand: [125I] Epibatidine); type: cell membranes, Membrane; details: imr-32; Not Active = under 50% inhibition at 10 µM
Neutrophil elastase = biological target: T2, Neutrophil elastase (Homo sapiens, UniProt P08246); type: tissue-based;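 note: inhibition of neutrophil elastase enzyme activity, measured with a p-nitroanilide-linked peptide substrate; in other assays of this panel Not Active means under 50% inhibition at 10 µM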
T2 sequence (P08246 whole entry): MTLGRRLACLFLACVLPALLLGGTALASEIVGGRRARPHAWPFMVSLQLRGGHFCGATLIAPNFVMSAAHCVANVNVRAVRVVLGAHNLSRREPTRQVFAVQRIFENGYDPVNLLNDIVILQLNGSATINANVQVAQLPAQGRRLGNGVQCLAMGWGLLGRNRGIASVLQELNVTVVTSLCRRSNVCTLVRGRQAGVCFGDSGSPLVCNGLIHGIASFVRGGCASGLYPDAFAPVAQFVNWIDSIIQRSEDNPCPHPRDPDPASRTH

Adenosine receptor A1 = biological target: T3, Adenosine receptor A1 (Homo sapiens, UniProt P30542); type: cell membranes, CHO, Membrane; details: cho;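 note: radioligand binding assay at the adenosine A1 receptor, with DPCPX serving as the labelled ligand; in other assays of this panel Not Active means under 50% inhibition at 10 µM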
T3 sequence (P30542 whole entry): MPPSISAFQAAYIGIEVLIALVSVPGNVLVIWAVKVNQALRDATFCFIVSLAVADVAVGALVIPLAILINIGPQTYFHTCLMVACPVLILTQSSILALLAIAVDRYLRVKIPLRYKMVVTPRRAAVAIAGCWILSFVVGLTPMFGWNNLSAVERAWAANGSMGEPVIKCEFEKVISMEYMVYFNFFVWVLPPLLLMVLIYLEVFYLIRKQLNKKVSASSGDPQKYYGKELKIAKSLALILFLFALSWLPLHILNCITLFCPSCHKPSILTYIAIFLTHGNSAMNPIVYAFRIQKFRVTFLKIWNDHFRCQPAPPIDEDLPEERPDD

Nitric oxide synthase 1 = Nitric oxide synthase 1 (Rattus norvegicus, UniProt P29476); type: tissue-based, Cerebellum; note: in other assays of this panel Not Active means under 50% inhibition at 10 µM
Sequence of Nitric oxide synthase 1 (P29476 whole entry): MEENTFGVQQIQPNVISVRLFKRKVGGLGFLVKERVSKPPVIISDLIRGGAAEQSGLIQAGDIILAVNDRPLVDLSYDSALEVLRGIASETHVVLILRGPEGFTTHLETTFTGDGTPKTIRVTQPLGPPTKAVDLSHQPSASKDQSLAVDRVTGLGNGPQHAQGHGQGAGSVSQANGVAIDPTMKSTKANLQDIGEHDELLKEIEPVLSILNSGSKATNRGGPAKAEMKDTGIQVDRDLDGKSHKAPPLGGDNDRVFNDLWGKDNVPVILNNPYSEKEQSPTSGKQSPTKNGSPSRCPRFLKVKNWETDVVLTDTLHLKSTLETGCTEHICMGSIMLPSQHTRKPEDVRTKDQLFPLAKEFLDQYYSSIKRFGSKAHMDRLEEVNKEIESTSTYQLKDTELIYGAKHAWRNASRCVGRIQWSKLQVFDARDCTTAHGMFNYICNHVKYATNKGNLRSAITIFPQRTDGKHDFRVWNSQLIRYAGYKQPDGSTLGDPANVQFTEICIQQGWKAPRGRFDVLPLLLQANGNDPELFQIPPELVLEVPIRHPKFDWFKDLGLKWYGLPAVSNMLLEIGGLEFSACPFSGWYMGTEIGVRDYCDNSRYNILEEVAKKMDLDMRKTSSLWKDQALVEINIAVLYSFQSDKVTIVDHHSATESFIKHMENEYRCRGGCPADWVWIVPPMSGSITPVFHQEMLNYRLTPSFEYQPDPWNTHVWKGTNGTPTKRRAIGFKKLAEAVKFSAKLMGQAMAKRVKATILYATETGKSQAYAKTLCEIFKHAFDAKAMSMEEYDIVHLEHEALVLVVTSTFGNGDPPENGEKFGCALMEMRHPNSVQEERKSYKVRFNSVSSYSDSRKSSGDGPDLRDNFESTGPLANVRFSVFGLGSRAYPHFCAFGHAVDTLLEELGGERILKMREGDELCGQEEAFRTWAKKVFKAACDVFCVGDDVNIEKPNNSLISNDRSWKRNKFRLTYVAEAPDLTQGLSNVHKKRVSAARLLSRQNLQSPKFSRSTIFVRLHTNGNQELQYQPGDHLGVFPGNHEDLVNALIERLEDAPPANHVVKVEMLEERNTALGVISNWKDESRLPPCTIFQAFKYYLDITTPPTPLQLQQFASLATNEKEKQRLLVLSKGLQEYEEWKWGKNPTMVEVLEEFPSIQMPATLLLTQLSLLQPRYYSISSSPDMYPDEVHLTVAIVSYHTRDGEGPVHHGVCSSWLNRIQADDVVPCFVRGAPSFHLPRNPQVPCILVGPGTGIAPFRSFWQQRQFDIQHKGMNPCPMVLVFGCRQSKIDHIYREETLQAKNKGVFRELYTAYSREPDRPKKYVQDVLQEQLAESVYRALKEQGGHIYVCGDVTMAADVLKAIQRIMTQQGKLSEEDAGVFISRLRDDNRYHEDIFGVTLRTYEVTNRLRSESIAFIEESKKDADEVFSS

[5] = DRUGMATRIX: Atrial Natriuretic Factor (ANF) radioligand binding (ligand: [125I] ANF (rat)); type: cell membranes, Cavia porcellus, Dunkin-Hartley, Adrenal gland, Membrane; details: Not Active = under 50% inhibition at 10 µM
Interstitial collagenase = biological target: T4, Interstitial collagenase (Homo sapiens, UniProt P03956); type: tissue-based, Rheumatoid synovial fibroblasts
T4 sequence (P03956 whole entry): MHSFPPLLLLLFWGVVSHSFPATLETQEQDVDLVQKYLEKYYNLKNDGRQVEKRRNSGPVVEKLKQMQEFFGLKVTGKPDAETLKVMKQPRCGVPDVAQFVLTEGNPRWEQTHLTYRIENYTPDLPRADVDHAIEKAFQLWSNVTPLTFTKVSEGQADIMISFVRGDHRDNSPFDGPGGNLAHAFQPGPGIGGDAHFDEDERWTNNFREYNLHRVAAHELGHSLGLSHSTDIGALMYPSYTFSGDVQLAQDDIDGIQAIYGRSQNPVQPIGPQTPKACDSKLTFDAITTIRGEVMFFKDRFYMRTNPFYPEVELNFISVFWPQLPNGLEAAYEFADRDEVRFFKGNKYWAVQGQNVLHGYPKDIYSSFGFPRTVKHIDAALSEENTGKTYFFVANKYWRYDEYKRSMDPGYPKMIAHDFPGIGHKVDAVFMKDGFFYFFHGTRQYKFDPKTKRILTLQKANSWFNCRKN

CCCCCCCCCc1ccc(O)cc1 [4-NONYLPHENOL]
Not Active: IC50 [1] | Ki [1] | IC50 [2] | IC50 [3] | Ki [3] | IC50 [4] | Ki [4] | IC50 (Neutrophil elastase) | IC50 (Adenosine receptor A1) | IC50 (Nitric oxide synthase 1) | IC50 [5] | Ki [5] | IC50 (Interstitial collagenase)

CN1C(C(=O)Nc2ccccn2)=C(O)c2ccccc2S1(=O)=O [PIROXICAM]
Not Active: IC50 [1] | Ki [1] | IC50 [2] | IC50 [3] | Ki [3] | IC50 [4] | Ki [4] | IC50 (Neutrophil elastase) | IC50 (Adenosine receptor A1) | IC50 (Nitric oxide synthase 1) | IC50 [5] | Ki [5] | IC50 (Interstitial collagenase)

N#C[C@H](O[C@@H]1O[C@H](CO[C@@H]2O[C@H](CO)[C@@H](O)[C@H](O)[C@H]2O)[C@@H](O)[C@H](O)[C@H]1O)c1ccccc1 [AMYGDALIN]
Not Active: IC50 [1] | Ki [1] | IC50 [2] | IC50 [3] | Ki [3] | IC50 [4] | Ki [4] | IC50 (Neutrophil elastase) | IC50 (Adenosine receptor A1) | IC50 (Nitric oxide synthase 1) | IC50 [5] | Ki [5] | Ki (Interstitial collagenase)

CCOC(=O)OC(C)OC1=C(C(=O)Nc2ccccn2)N(C)S(=O)(=O)c2ccccc21 (stereo not drawn) [AMPIROXICAM]
Not Active: IC50 [1] | Ki [1] | IC50 [2] | IC50 [3] | Ki [3] | IC50 [4] | Ki [4] | IC50 (Neutrophil elastase) | IC50 (Adenosine receptor A1) | IC50 (Nitric oxide synthase 1) | IC50 [5] | Ki [5] | IC50 (Interstitial collagenase)

GOLD SODIUM THIOMALATE
Not Active: IC50 [1] | Ki [1] | IC50 [2] | Ki [2] | IC50 [3] | Ki [3] | IC50 [4] | Ki [4] | IC50 (Neutrophil elastase) | Ki (Neutrophil elastase) | IC50 (Adenosine receptor A1) | Ki (Adenosine receptor A1) | IC50 (Nitric oxide synthase 1) | Ki (Nitric oxide synthase 1) | IC50 [5] | Ki [5] | IC50 (Interstitial collagenase) | Ki (Interstitial collagenase)

C[C@]12CCC(=O)C=C1CC[C@@H]1[C@@H]2C(=O)C[C@@]2(C)[C@H]1CC[C@]2(O)C(=O)CO [CORTISONE]
Not Active: IC50 [1] | Ki [1] | IC50 [2] | IC50 [3] | Ki [3] | IC50 [4] | Ki [4] | IC50 (Neutrophil elastase) | IC50 (Adenosine receptor A1) | IC50 (Nitric oxide synthase 1) | IC50 [5] | Ki [5] | IC50 (Interstitial collagenase)

CCCC[C@@H](CC)COC(=O)c1ccccc1C(=O)OC[C@@H](CC)CCCC [BIS(2-ETHYLHEXYL)PHTHALATE]
Not Active: IC50 [1] | Ki [1] | IC50 [2] | IC50 [3] | Ki [3] | IC50 [4] | Ki [4] | IC50 (Neutrophil elastase) | IC50 (Adenosine receptor A1) | IC50 (Nitric oxide synthase 1) | IC50 [5] | Ki [5] | IC50 (Interstitial collagenase)

CCc1ccc(C(=O)C(C)CN2CCCCC2)cc1 (stereo not drawn) [EPERISONE]
Not Active: IC50 [1] | Ki [1] | IC50 [2] | IC50 [3] | Ki [3] | IC50 [4] | Ki [4] | IC50 (Neutrophil elastase) | IC50 (Adenosine receptor A1) | IC50 (Nitric oxide synthase 1) | IC50 [5] | Ki [5] | IC50 (Interstitial collagenase)

CC(C)n1c(/C=C/C(O)CC(O)CC(=O)O)c(-c2ccc(F)cc2)c2ccccc21 (stereo not drawn) [FLUVASTATIN]
Not Active: IC50 [1] | Ki [1] | IC50 [2] | IC50 [3] | Ki [3] | IC50 [4] | Ki [4] | IC50 (Neutrophil elastase) | IC50 (Adenosine receptor A1) | IC50 (Nitric oxide synthase 1) | IC50 [5] | Ki [5] | IC50 (Interstitial collagenase)

CN(C)[C@@H]1C(O)=C(C(N)=O)C(=O)[C@@]2(O)C(O)=C3C(=O)c4c(O)cccc4[C@@](C)(O)[C@H]3[C@H](O)[C@@H]12 [OXYTETRACYCLINE]
Not Active: IC50 [1] | Ki [1] | IC50 [2] | IC50 [3] | Ki [3] | IC50 [4] | Ki [4] | IC50 (Neutrophil elastase) | IC50 (Adenosine receptor A1) | IC50 (Nitric oxide synthase 1) | IC50 [5] | Ki [5] | IC50 (Interstitial collagenase)

O=C1CN=C(c2ccccc2)c2cc([N+](=O)[O-])ccc2N1 [NITRAZEPAM]
Not Active: IC50 [1] | Ki [1] | IC50 [2] | IC50 [3] | Ki [3] | IC50 [4] | Ki [4] | IC50 (Neutrophil elastase) | IC50 (Adenosine receptor A1) | IC50 (Nitric oxide synthase 1) | IC50 [5] | Ki [5] | IC50 (Interstitial collagenase)
